Numbers after ± are expanded uncertainties.
How the values were obtained:
[1] = Liquid, Ebulliometric method (Recirculating still)
[2] = refractive index (Na D-line) (dimensionless); conditions: 101.33 kPa, Liquid, Standard Abbe refractometry
[3] = refractive index (Na D-line) (dimensionless); xn = mol fraction of the nth substance listed; conditions: 293.15 K, 101.3 kPa, Liquid, Standard Abbe refractometry

C=CCCCC [hex-1-ene]
Conditions	refractive index	vapor or sublimation pressure [kPa]
[1], 298.99 K	–	25.68 ± 0.36
[1], 302.85 K	–	30.13 ± 0.36
[1], 306.73 K	–	35.19 ± 0.37
[1], 310.9 K	–	41.41 ± 0.38
[1], 316.17 K	–	50.46 ± 0.39
[1], 320.92 K	–	59.91 ± 0.4
[1], 323.15 K	–	64.82 ± 0.41
[1], 325.41 K	–	70.09 ± 0.42
[1], 329.11 K	–	79.46 ± 0.43
[1], 330.99 K	–	84.63 ± 0.44
[1], 332.94 K	–	90.24 ± 0.48
[1], 333.15 K	–	90.94 ± 0.48
[1], 336.04 K	–	99.73 ± 0.46
[2], 293.15 K	1.3881 ± 0.0003	–
[2], 298.15 K	1.3851 ± 0.0007	–

C=CCCCC [hex-1-ene] + c1ccsc1
Conditions	refractive index
[3], x2 = 0	1.3881 ± 0.0003

CCCCCC [hexane]
Conditions	refractive index	vapor or sublimation pressure [kPa]
[1], 307.31 K	–	29.67 ± 0.36
[1], 311.36 K	–	34.86 ± 0.37
[1], 314.93 K	–	40.02 ± 0.37
[1], 316.81 K	–	43.01 ± 0.38
[1], 321.97 K	–	52.02 ± 0.39
[1], 323.15 K	–	54.25 ± 0.4
[1], 326.94 K	–	62.11 ± 0.4
[1], 331 K	–	71.39 ± 0.42
[1], 335.54 K	–	83.09 ± 0.43
[1], 338.15 K	–	90.44 ± 0.45
[1], 338.59 K	–	91.73 ± 0.45
[1], 342 K	–	102.27 ± 0.46
[2], 293.15 K	1.3751 ± 0.0003	–
[2], 298.15 K	1.3724 ± 0.0007	–

CCCCCC [hexane] + c1ccsc1
Conditions	refractive index
[3], x2 = 0	1.3751 ± 0.0003

c1ccsc1 [thiophene]
Conditions	refractive index, 293.15 K	refractive index, 298.15 K	vapor or sublimation pressure, 323.15 K [kPa]	vapor or sublimation pressure, 333.15 K [kPa]	vapor or sublimation pressure, 338.15 K [kPa]
[1]	–	–	31.21 ± 0.4	45.44 ± 0.42	54.27 ± 0.44
[2]	1.5287 ± 0.0003	1.5255 ± 0.0007	–	–	–

c1ccsc1 [thiophene] + C=CCCCC
[3]
Conditions	refractive index
x1 = 0.024	1.3903 ± 0.0004
x1 = 0.051	1.3926 ± 0.0004
x1 = 0.076	1.3949 ± 0.0004
x1 = 0.094	1.3966 ± 0.0004
x1 = 0.185	1.4055 ± 0.0004
x1 = 0.288	1.4163 ± 0.0004
x1 = 0.378	1.4266 ± 0.0004
x1 = 0.486	1.4402 ± 0.0004
x1 = 0.579	1.453 ± 0.0004
x1 = 0.683	1.4688 ± 0.0005
x1 = 0.788	1.4866 ± 0.0005
x1 = 0.89	1.5058 ± 0.0005
x1 = 0.91	1.5097 ± 0.0005
x1 = 0.948	1.5174 ± 0.0005
x1 = 0.974	1.523 ± 0.0005
x1 = 1	1.5287 ± 0.0003

c1ccsc1 [thiophene] + CCCCCC
[3]
Conditions	refractive index
x1 = 0.027	1.3774 ± 0.0004
x1 = 0.05	1.3794 ± 0.0004
x1 = 0.08	1.3822 ± 0.0004
x1 = 0.096	1.3836 ± 0.0004
x1 = 0.194	1.3933 ± 0.0004
x1 = 0.292	1.4039 ± 0.0004
x1 = 0.394	1.4161 ± 0.0004
x1 = 0.494	1.4296 ± 0.0004
x1 = 0.588	1.4438 ± 0.0005
x1 = 0.697	1.4624 ± 0.0005
x1 = 0.797	1.4814 ± 0.0005
x1 = 0.897	1.5034 ± 0.0006
x1 = 0.919	1.5084 ± 0.0006
x1 = 0.949	1.5158 ± 0.0006
x1 = 0.974	1.5219 ± 0.0006
x1 = 1	1.5287 ± 0.0003

Cc1ccccc1 [toluene]
Conditions	refractive index
[2], 298.15 K	1.4939 ± 0.0007

Source: the NIST ThermoML archive (doi:10.1021/je0603022)
